{"source": "patent US8022036B2", "about": "“Use of thymosin alpha 1 for the treatment of immunological diseases” (Sigma-Tau Industrie Farmaceutiche Riunite S.p.A., priority 2006, dated 2011)", "system": "GM-DCs or FL-DCs", "experiment": "Cytokine production and T cell priming by human DCs (ELISA)", "type": "cell-based", "description": "GM-DCs or FL-DCs were obtained from purified CD14+ monocytes from healthy donors or transplanted patients (1 month post-HSCT) cultured in Iscove's modified medium for 7-9 days, in the presence of rGM-CSF (Schering-Plough, Milan, Italy) and rIL-4 (Peprotech, Inalco, Milan, Italy) or FLT3-L (Immunex Corporation, Seattle, Wash.) (Blood. 2004; 103:4232-4239). DC recovery was between 20-30% reduced in cultures from transplanted patients. Murine GM-DCs or FL-DCs were obtained from bone marrow cells for 7-9 days, as described (Blood. 2004; 103:4232-4239). Thymosin alpha 1 and sThymosin alpha 1 were added to the cultures at 20 ng/mL. DCs (>99% CD11c+ consisting of 90-95% CD8-, 5-10% CD8+, and 1-5% B220+ cells) were purified from spleens (spDCs) by magnetic-activated sorting using CD11c MicroBeads and MidiMacs (Miltenyi Biotech). DC populations were further separated into CD8−, CD8+ and B220+ fractions by means of CD8 or B220 MicroBeads (Miltenyi Biotech). DCs were pulsed in serum-free Iscove medium for 24 hours with live unopsonized Aspergillus conidia or Zymosan from Saccharomyces cerevisiae (Sigma) or CpG-ODN 2006 as described.7 Phagocytosis was done as described (Blood. 2004; 103:4232-4239). Photographs were taken using a high Resolution Microscopy Color Camera AxioCam, using the AxioVision Software Rel. 3.1 (Carl Zeiss, Milan, Italy).\nCytokine content was assessed by enzyme-linked immunosorbent assays (Endogen Human Elisa Kits, R&D Systems and Euroclone, Milan, Italy). AID EliSpot assay kits (Amplimedical, Buttigliera Alta, Turin, Italy) were used on purified splenic CD4+ Tcells cocultured with conidia-pulsed DCs for 5 days to enumerate cytokine-producing cells (Blood. 2003; 102:3807-3814). 1-MT was used at 2 μM.\n(C) Cytokine production (pg/mL by ELISA) by Thymosin alpha 1-induced DCs from healthy donors cultured in serum-free medium (1×10^6 cells/mL) with unopsonized Aspergillus conidia (5×10^5/mL) or 10 μg/mL Zymosan or 2 μg/mL CpG-B ODN 2006 for 24 hours. The data shown are aggregated results from three independent experiments and presented in the mean±SD. […]", "note": "No end group written: not given here.", "data": [{"substance": "Thymosin alpha 1: naturally occurring thymic peptide; supplied as purified, endotoxin-free sterile lyophilized acetylated polypeptide from SciClone Pharmaceuticals (Ac-SDAAVDTSSEITTKDLKEKKEVVEEAEN; UniProt P06454 2-29, looked up)", "values": [{"measurement": "IL-10 production by GM-DCs", "setting": "healthy donors, Aspergillus conidia, 24 hours", "value": "produced increased levels of IL-10"}, {"measurement": "IFN-a production", "setting": "in response to Aspergillus conidia, Zymosan or CpG ODN", "value": "mainly produced by FL-DCs or Thymosin alpha 1-treated GM-DCs"}, {"measurement": "priming for IL-10-producing CD4+ T cells", "setting": "in vitro, Thymosin alpha 1-treated GM-DCs", "value": "primed for IL-10-producing CD4+ T cells in vitro"}]}]}
